The subject of data set [1] is JCPyV strain Mad-4. The experiment in a line: JCPyV replication assay in COS-7 cells (qPCR). The data set is classed as cell-based, human polyomavirus. To be noted: Polyomavirus sp.; JCPyV strain Mad-4 in COS-7 cells, n = 1. On the procedure:
(§1) Primary human foreskin fibroblasts (HFFs; obtained from clinical samples at Children’s Hospital in Erlangen, Germany), guinea pig embryonic fibroblasts (GPEFs; generously provided by Mark R. Schleiss from the University of Minnesota in Minneapolis, MN, USA), and rat embryonic fibroblasts were cultivated in Eagle’s Minimal Essential Medium (MEM) supplemented with 1 × GlutaMAX™ (both from Thermo Fisher Scientific, Waltham, MA, USA), 10 µg/mL gentamicin, and 10% fetal bovine serum (FBS; Capricorn, Ebsdorfergrund, Germany). Human glioblastoma–astrocytoma cell line (U373) and mouse embryonic fibroblasts (MEFs), both obtained from ATCC (Manassas, VA, USA), and Vero cell sublineage 76 [26], were cultivated in Dulbecco’s modified Eagle’s medium (DMEM) supplemented with 1 × GlutaMAX™, 10 µg/mL gentamicin, and 10% fetal bovine serum. All cultured cells were maintained under the conditions of 37 °C temperature, 5% CO2, and 80% humidity. […]
(§2) A variety of antiherpesviral and non-herpesviral drug activities were assessed by the cell culture-based viral replication systems, as described elsewhere. […] After incubation at 37 °C for 3 days, iSLK.219 cells were fixed with 10% formalin, washed with PBS, and used for a quantitation of RFP reporter signal by PicoMD counting (ImageXpress® Pico device, Molecular Devices LLC, San Jose, CA, USA). […]
In general terms: In qPCR the cycle at which signal appears reflects the starting amount.

Data set [2] has as its system KSHV rKSHV.219-GFP. In words: KSHV lytic replication assay in iSLK.219 cells. Conditions: Human gammaherpesvirus 8, read-out: EC50 KSHV. The format is cell-based, Kaposi's sarcoma-associated herpesvirus. On the procedure: as §1, with “humidity. The regular monitoring for the absence of mycoplasma contamination was conducted using Lonza™ Mycoalert™ (Thermo Fisher Scientific, Waltham, MA, USA). Cultured cell-based viral replication assays were performed by the use of the HCMV strain AD169 (variant U.K.), the recombinant HCMVs AD169-GFP expressing green fluorescent protein [27], TB40 IE2-YFP and TB40-FLuc expressing an IE2-YFP fusion protein or firefly luciferase (FLuc), and Merlin-GFP [31].” for “humidity.”
as §2

The nature of data set [3]: Neutral Red uptake cell viability assay in mock-infected HFFs. The data set is classed as cell-based. To be noted: human, read-out: CC50 Mock-inf. On the procedure: To address cell viability after compound treatment, a NR uptake assay was performed. Uninfected cells were seeded at equal numbers as for antiviral replication assays and treated with compounds or solvent control. The treatment was performed for HFFs (7 d), U373 (14 d), A549 (3 d), J-Jhan (14 d), and non-dox-induced iSLK.219 cells (3 d). At the end of the treatment period, 40 µg/mL of Neutral Red (NR) was added and incubated for 2–4 h at 37 °C, before the NR-containing supernatant was removed. Cells were destained using a solution containing 50% ethanol, 1% acetic acid, and 49% water. NR fluorescence was quantified using the Victor X4 microplate reader (PerkinElmer, Waltham, MA, USA) (560/630 nm). For the AB cell viability assay, which was also used to quantify virus-induced cytopathogenicity (particularly in the case of GPCMV in GPEFs), cells were seeded at equal numbers as for antiviral replication assays and incubated with a medium containing 25 ng/mL AB (resazurin; Ann Arbor, MI, USA), incubated for 6 h at 37 °C, and used for measurement identical with NR.

Data set [4] has as its system HCMV AD169-UL50-HA. The experiment in a line: Virus entry analysis, pre-post-incubation versus post-incubation (Western blot). The format is cell-based, human cytomegalovirus. To be noted: CCT 5 nM and 15 nM, HFFs, MOI 0.01, 7 d p.i. On the procedure: (§3) Western blot (Wb) analyses were performed as previously described using total lysates prepared from infected and mock-infected HFFs. For this purpose, HFFs were seeded at 3 × 10^5 cells/6-well and used for infection with HCMV AD169, or other viruses as indicated, then treated with compounds or solvent control. At the given time points of infection, the total lysates were prepared and used for separation on standard SDS-PAGE/Wb procedures. For Wb staining, antibodies specific for CDK8 (A302-501A, Bethyl Laboratories, Montgomery, TX, USA); viral proteins such as mAb-IE1, mAb-UL44, mAb-pp28, and mAb-MCP (kindly provided by S. Jonjic and T. Lenac Rovis, Rijeka, Croatia); as well as mAb-β-actin as a house-keeping protein and loading control (A5441, Sigma Aldrich, St. Louis, MO, USA) were used, followed by incubation and staining with the appropriate HRP-conjugated secondary antibodies.

The subject of data set [5] is HCMV AD169. The experiment in a line: Western blot analysis of HCMV protein expression in infected HFFs. The data set is classed as cell-based, human cytomegalovirus. Conditions: 30 nM, HCMV AD169 MOI 0.1, 5 d and 7 d p.i. Here is the method:
as §3
For orientation: In western blotting, separated proteins are transferred to a membrane and probed.

The mark [6] stands for this setting: mock-infected (uninfected) HFFs.

Where two headings read alike, the source gives them in different places. Where only a bound is given, the exact number is not on record here.

The term EC50 denotes the midpoint of the concentration-response curve. Usually CC50 stands for the concentration at which the toxic effect on the cells reaches its halfway point. With `CN(C)C(=O)Cn1cc(-c2ccc(-c3cncc4ccccc34)cc2)cn1` [BI-1347], the EC50 in data set [1] was found to be 0.86 ± 1.55 µM; in data set [2], 0.31 ± 0.61 µM. Besides, the 50% cytotoxic concentration (CC50) at 7 d in data set [3] (setting [6]) was more than 100 µM.
In the case of `Cn1ncc2cc(-c3cnc(N)c(Cl)c3N3CCC4(CCNC4=O)CC3)ccc21` [CCT-151921], in data set [4], the “effect at the stage of virus entry” value is given as “does not act at the stage of virus entry”. For the same compound, the EC50 in data set [1] came to 3.67 ± 3 µM; in data set [2], 0.3 µM. The “viral late (L) protein level (pp28), Western blot” value in data set [5] is “complete inhibition”. The half-maximal cytotoxic concentration (CC50) at 7 d in data set [3] (HFF) is more than 100 µM.
In the case of `Cc1n[nH]c2ncc(C(=O)N3CCC[C@H]3c3ccc(Cl)cc3)cc12` [MSC-2530818], the half-maximal effective concentration (EC50) in data set [2] is more than 40 µM. For the same compound, the CC50 at 7 d in data set [3] (setting [6]) was more than 100 µM.

For the origin of these results see PMC11435438, “Cyclin-Dependent Kinase 8 Represents a Positive Regulator of Cytomegalovirus Replication and a Novel Host Target for Antiviral Strategies” (Pharmaceutics, 2024).
